Data reported in patent US20250361268A1, “NOVEL ANTI-INFLAMMATORY PEPTIDE AND USE THEREOF” (NOVACELL TECHNOLOGY INC., priority 2022, published 2025).
Peptide text beside a SMILES is read from it.

T1: FPR1 (Homo sapiens, UniProt P21462)
T1 sequence (P21462 1-350): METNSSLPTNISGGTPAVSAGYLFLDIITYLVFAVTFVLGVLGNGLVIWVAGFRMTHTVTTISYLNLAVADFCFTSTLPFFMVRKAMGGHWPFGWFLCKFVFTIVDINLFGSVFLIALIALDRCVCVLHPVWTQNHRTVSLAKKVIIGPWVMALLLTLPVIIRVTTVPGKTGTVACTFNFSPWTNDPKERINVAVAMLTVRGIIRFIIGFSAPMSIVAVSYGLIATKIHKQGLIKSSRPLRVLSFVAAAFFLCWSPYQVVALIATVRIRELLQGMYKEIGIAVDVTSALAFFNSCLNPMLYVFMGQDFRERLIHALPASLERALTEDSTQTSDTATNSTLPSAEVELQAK

T2: FPR2 (Homo sapiens, UniProt P25090)
T2 construct: expressed in transfected cells; host or cells: RBL cells (RBL-FPR2)
T2 sequence (P25090 1-351): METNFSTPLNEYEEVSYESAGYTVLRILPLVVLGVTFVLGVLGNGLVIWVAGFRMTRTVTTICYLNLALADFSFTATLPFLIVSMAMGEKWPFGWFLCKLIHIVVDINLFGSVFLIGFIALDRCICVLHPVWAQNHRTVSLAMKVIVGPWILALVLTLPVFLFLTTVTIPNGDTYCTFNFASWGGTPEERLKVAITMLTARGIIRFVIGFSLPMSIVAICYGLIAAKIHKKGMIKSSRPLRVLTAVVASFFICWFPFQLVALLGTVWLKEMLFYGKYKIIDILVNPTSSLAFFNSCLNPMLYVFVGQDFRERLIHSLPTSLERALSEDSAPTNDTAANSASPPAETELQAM

T3: FPR1 (UniProt P21462 1-350, limits assumed)
T3 sequence (looked up): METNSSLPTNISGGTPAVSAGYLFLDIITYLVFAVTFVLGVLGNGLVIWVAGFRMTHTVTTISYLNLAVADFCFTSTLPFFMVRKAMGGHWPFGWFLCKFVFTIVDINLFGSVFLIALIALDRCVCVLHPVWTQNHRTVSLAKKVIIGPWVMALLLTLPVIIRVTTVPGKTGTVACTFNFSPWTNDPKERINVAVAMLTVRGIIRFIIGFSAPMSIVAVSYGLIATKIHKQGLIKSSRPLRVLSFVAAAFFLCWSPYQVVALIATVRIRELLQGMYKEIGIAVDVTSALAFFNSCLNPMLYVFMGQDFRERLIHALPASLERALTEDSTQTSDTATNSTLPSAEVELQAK

T4: formyl peptide receptor 2 (FPR2) (UniProt P25090 1-351, limits assumed)
T4 sequence (looked up): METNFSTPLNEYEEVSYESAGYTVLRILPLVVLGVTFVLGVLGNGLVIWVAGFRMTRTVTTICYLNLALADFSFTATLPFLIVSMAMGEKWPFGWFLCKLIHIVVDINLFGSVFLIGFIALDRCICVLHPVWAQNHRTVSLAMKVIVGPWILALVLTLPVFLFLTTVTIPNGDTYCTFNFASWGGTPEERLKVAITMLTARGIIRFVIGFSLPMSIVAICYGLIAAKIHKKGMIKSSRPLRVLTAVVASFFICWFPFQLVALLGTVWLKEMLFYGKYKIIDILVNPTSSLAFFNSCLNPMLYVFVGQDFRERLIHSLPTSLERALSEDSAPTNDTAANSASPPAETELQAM

B1: peptide of SEQ ID NO 41 (peptide)
peptide: MRYKYM
HELM: PEPTIDE1{M.R.Y.K.Y.[dM].[am]}$$$$V2.0; N-terminus assumed
SMILES: CSCC[C@H](N)C(=O)N[C@@H](CCCNC(=N)N)C(=O)N[C@@H](Cc1ccc(O)cc1)C(=O)N[C@@H](CCCCN)C(=O)N[C@@H](Cc1ccc(O)cc1)C(=O)N[C@H](CCSC)C(N)=O

What was measured:
[1] = tested on: RAW264.7 cell line; assay: Cytokine inhibition ability: LPS-induced cytokine gene expression in RAW264.7 macrophages; type: cell-based, mouse; settings: grade of reduction rate of gene expression, peptide 100 nM, LPS 200 ng/mL, 6 hours
Description: The present inventors observed the cytokine inhibition ability of the immunomodulatory peptide candidates prepared according to one example of the present invention. Specifically, to confirm whether the peptides reduce inflammatory responses in cells, changes in cytokine gene expression in cells upon inflammation was measured.
The present inventors used a RAW264.7 cell line, that is, mouse macrophages, and used lipopolysaccharide (LPS; Sigma-Aldrich, #L2630), which is the main component of a gram-negative bacterial cell wall, as a material causing an inflammatory response. A peptide that had been dissolved in water at 100 μM was prepared.
In the present experiment, the cells were cultured in a DMEM (Lonza, #BE12-604F) containing 10% FBS and 1% penicillin-streptomycin under conditions of 37° C. and 5% CO2.
The cells were plated in a 24-well plate (Costar, #3603) at a density of 2.5×10^5 cells/well. After 24 hours, the prepared cells were treated with the peptide at 100 nM. After incubation at 37° C. for 30 minutes, to induce inflammation, 200 ng/mL of LPS was treated. After incubation at 37° C. for 6 hours, the cells in a medium-free state were treated with TRIzol™ (Invitrogen, #15596018) to lyse the cells. Through the given experimental method, RNA was obtained, cDNA was produced using a reverse transcriptase (Promega, #M1705). Afterward, a cytokine expression level was measured using SYBR Green (Enzynomics, RT530) and mouse primers of each inflammatory cytokine gene (TNFα, IL-6, and IL-1β).

[2] = target: T1, FPR1; assay: Change in calcium activity by peptide, FPR1 activation effect; type: cell-based; settings: calcium activity (Fura-2), graded per Table 3, read-out: EC50 for [Ca^2+] FPR1
How it was run: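 Calcium flux induced by peptide addition was monitored on a FlexStation 3 plate reader. Before this, cells seeded a day earlier (3×10^5/well) took up the Fura-2 dye for 1 h at 37 °C plus 30 min dark at room temperature.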

[3] = target: T2, FPR2; assay: Change in calcium activity by peptide (Fura-2) in RBL cells overexpressing FPR2; type: cell-based; settings: calcium activity (Fura-2), graded per Table 3, read-out: EC50 for [Ca^2+] FPR2
How it was run: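 Peptide-induced intracellular calcium change measured by Fura-2 fluorescence on a plate reader. Cells: RBL line overexpressing FPR2, dye-loaded 1 h at 37 °C then 30 min at RT in dark; peptides from 0.5 mM water/50% DMSO stocks, diluted in HBSS with 20 mM HEPES.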

[4] = target: T3, FPR1; assay: cell-based or functional assay
[5] = target: T4, formyl peptide receptor 2 (FPR2); assay: cell-based or functional assay

| Molecule | Cytokine inhibition ability IL-1β [1] | Cytokine inhibition ability IL-6 [1] | Cytokine inhibition ability TNFα [1] | EC50 [2] | EC50 [3] | EC50 for [Ca2+] [4] | EC50 for [Ca2+] [5] |
| --- | --- | --- | --- | --- | --- | --- | --- |
| CSCC[C@H](NC(=O)[C@H](CCCNC(=N)N)NC(C)=O)C(=O)N[C@@H](CCCNC(=N)N)C(=O)N[C@@H](Cc1ccc(O)cc1)C(=O)N[C@@H](CCCCN)C(=O)N[C@H](C(=O)N[C@H](CCSC)C(N)=O)C(C)C [Peptide 6] (HELM PEPTIDE1{[ac].R.M.R.Y.K.V.[dM].[am]}$$$$V2.0) | A (81%-100%) | C (41%-60%) | A (81%-100%) | > 10000 nM | < 10 nM |  |  |
| CSCC[C@H](N)C(=O)N[C@@H](CCCCN)C(=O)N[C@@H](Cc1ccc(O)cc1)C(=O)N[C@@H](CCCCN)C(=O)N[C@H](C(=O)N[C@H](CCSC)C(N)=O)C(C)C [Peptide 17] (HELM PEPTIDE1{M.K.Y.K.V.[dM].[am]}$$$$V2.0) | B (61%-80%) | D (21%-40%) | B (61%-80%) | > 10000 nM | < 10 nM |  |  |
| CSCC[C@H](NC(C)=O)C(=O)N[C@@H](CCCCN)C(=O)N[C@@H](Cc1ccc(O)cc1)C(=O)N[C@@H](CCCCN)C(=O)N[C@H](C(=O)N[C@H](CCSC)C(N)=O)C(C)C [Peptide 18] (HELM PEPTIDE1{[ac].M.K.Y.K.V.[dM].[am]}$$$$V2.0) | A (81%-100%) | D (21%-40%) | A (81%-100%) | > 10000 nM | < 10 nM |  |  |
| CCCC(=O)N[C@@H](CCSC)C(=O)N[C@@H](CCCCN)C(=O)N[C@@H](Cc1ccc(O)cc1)C(=O)N[C@@H](CCCCN)C(=O)N[C@H](C(=O)N[C@H](CCSC)C(N)=O)C(C)C [Peptide 19] (HELM PEPTIDE1{[CCCC(=O)[*:2]].M.K.Y.K.V.[dM].[am]}$$$$V2.0) | A (81%-100%) | B (61%-80%) | B (61%-80%) | > 10000 nM | < 10 nM |  |  |
| CCCCCCCC(=O)N[C@@H](CCSC)C(=O)N[C@@H](CCCCN)C(=O)N[C@@H](Cc1ccc(O)cc1)C(=O)N[C@@H](CCCCN)C(=O)N[C@H](C(=O)N[C@H](CCSC)C(N)=O)C(C)C [Peptide 20] (HELM PEPTIDE1{[CCCCCCCC(=O)[*:2]].M.K.Y.K.V.[dM].[am]}$$$$V2.0) | B (61%-80%) | B (61%-80%) | B (61%-80%) | > 10000 nM | 11 to 100 nM |  |  |
| CSCC[C@H](NC(=O)[C@@H](N)CCCNC(=N)N)C(=O)N[C@@H](CCCNC(=N)N)C(=O)N[C@@H](Cc1ccc(O)cc1)C(=O)N[C@@H](CCCCN)C(=O)N[C@@H](Cc1ccc(O)cc1)C(=O)N[C@H](CCSC)C(N)=O [Peptide 38] (HELM PEPTIDE1{R.M.R.Y.K.Y.[dM].[am]}$$$$V2.0) | A (81%-100%) | C (41%-60%) | B (61%-80%) | > 10000 nM | < 10 nM |  |  |
| CSCC[C@H](NC(=O)[C@H](CCCNC(=N)N)NC(C)=O)C(=O)N[C@@H](CCCNC(=N)N)C(=O)N[C@@H](Cc1ccc(O)cc1)C(=O)N[C@@H](CCCCN)C(=O)N[C@@H](Cc1ccc(O)cc1)C(=O)N[C@H](CCSC)C(N)=O [Peptide 39] (HELM PEPTIDE1{[ac].R.M.R.Y.K.Y.[dM].[am]}$$$$V2.0) | B (61%-80%) | D (21%-40%) | B (61%-80%) | > 10000 nM | 11 to 100 nM |  |  |
| CCCCCCCC(=O)N[C@@H](CCCNC(=N)N)C(=O)N[C@@H](CCSC)C(=O)N[C@@H](CCCNC(=N)N)C(=O)N[C@@H](Cc1ccc(O)cc1)C(=O)N[C@@H](CCCCN)C(=O)N[C@@H](Cc1ccc(O)cc1)C(=O)N[C@H](CCSC)C(N)=O [Peptide 40] (HELM PEPTIDE1{[CCCCCCCC(=O)[*:2]].R.M.R.Y.K.Y.[dM].[am]}$$$$V2.0) | A (81%-100%) | C (41%-60%) | B (61%-80%) | > 10000 nM | 11 to 100 nM |  |  |
| CSCC[C@H](NC(C)=O)C(=O)N[C@@H](CCCNC(=N)N)C(=O)N[C@@H](Cc1ccc(O)cc1)C(=O)N[C@@H](CCCCN)C(=O)N1CCC[C@H]1C(=O)N[C@H](CCSC)C(N)=O [Peptide 55] (HELM PEPTIDE1{[ac].M.R.Y.K.P.[dM].[am]}$$$$V2.0) | A (81%-100%) | B (61%-80%) | B (61%-80%) | > 10000 nM | < 10 nM |  |  |
| CCCCCCCC(=O)N[C@@H](CCCCN)C(=O)N[C@@H](CCSC)C(=O)N[C@@H](CCCCN)C(=O)N[C@@H](Cc1ccc(O)cc1)C(=O)N[C@@H](CCCCN)C(=O)N1CCC[C@H]1C(=O)N[C@H](CCSC)C(N)=O [Peptide 69] (HELM PEPTIDE1{[CCCCCCCC(=O)[*:2]].K.M.K.Y.K.P.[dM].[am]}$$$$V2.0) | A (81%-100%) | C (41%-60%) | B (61%-80%) | > 10000 nM | 11 to 100 nM |  |  |
| CSCC[C@H](N)C(=O)N[C@@H](CCCCN)C(=O)N[C@@H](Cc1ccc(O)cc1)C(=O)N[C@@H](CCCCN)C(=O)N1CCC[C@H]1C(=O)N[C@H](CCSC)C(N)=O [Peptide 70] (HELM PEPTIDE1{M.K.Y.K.P.[dM].[am]}$$$$V2.0) | A (81%-100%) | D (21%-40%) | C (41%-60%) | > 10000 nM | < 10 nM |  |  |
| CSCC[C@H](NC(C)=O)C(=O)N[C@@H](CCCCN)C(=O)N[C@@H](Cc1ccc(O)cc1)C(=O)N[C@@H](CCCCN)C(=O)N1CCC[C@H]1C(=O)N[C@H](CCSC)C(N)=O [Peptide 71] (HELM PEPTIDE1{[ac].M.K.Y.K.P.[dM].[am]}$$$$V2.0) | A (81%-100%) | C (41%-60%) | C (41%-60%) | > 10000 nM | 11 to 100 nM |  |  |
| CCCC(=O)N[C@@H](CCSC)C(=O)N[C@@H](CCCCN)C(=O)N[C@@H](Cc1ccc(O)cc1)C(=O)N[C@@H](CCCCN)C(=O)N1CCC[C@H]1C(=O)N[C@H](CCSC)C(N)=O [Peptide 72] (HELM PEPTIDE1{[CCCC(=O)[*:2]].M.K.Y.K.P.[dM].[am]}$$$$V2.0) | B (61%-80%) | D (21%-40%) | B (61%-80%) | > 10000 nM | 11 to 100 nM |  |  |
| B1 |  |  |  |  |  | > 10000 nM | < 10 nM |
